Data set [1] has as its system catalepsy provoked by prochlorpemazine. As to the kind of experiment: Antagonism of catalepsy provoked by prochlorpemazine. The format is in vivo. Conditions: rats; for Antagonism of catalepsy provoked by prochloropemazine for a determined dose in mg/kg: prochlorpemazine 15 mg/kg i.p.; for antagonism toward the cataleptigenic activity of prochlorpemazine: in words, i.p. Also noted: key to Antagonism of catalepsy provoked by prochloropemazine for a determined dose in mg/kg: evaluated at the height of the effect was expressed by an increasing number of + signs for a given dose; ++: evaluated at the height of the effect was expressed by an increasing number of + signs for a given dose; +++: evaluated at the height of the effect was expressed by an increasing number of + signs for a given dose. As to the method: The tests are carried out on groups of 5 young rats weighing about 100 g and the cataleptigenic agent used is prochlorpemazine at a dose of 15 mg/kg intraperitoneally. The product studied was administered simultaneously in the same way. The intensity of the catalepsy was evaluated by the test of crossing of the homolateral paws [BOISSIER et al, Therapie, Vol. 18 (1963), p. 1257] every hour for 7 hours. The rating adopted is the following: the animal refuses the crossing of the front paws with the homolateral rear paws (0), he retains the desired crossing on one side only (0.5), he accepts the crossing on both sides (1). The sum of the scores by groups read at different periods after the administration of the product studied is determined. The antagonism of catalepsy provoked by prochlorpemazine evaluated at the height of the effect was expressed by an increasing number of + signs for a given dose and the results are reported in Table II.

The subject of the next data set is mice. As to the kind of experiment: Anorexigenic activity in mice. The format is in vivo. Particulars: 20 mg/kg i.p., food intake over following 24 hours. The method, then: The anorexigenic activity was studied with mice and the animals receive the product studied intraperitoneally 30 minutes before the start of the test. The quantities of nourishment absorbed in the course of the following 24 hours was noted and compared with the quantity of nourishment absorbed in the course of the same period by animals not receiving the product studied. The anorexigenic activity was expressed by an increasing number of + signs for a given dose expressed in mg/kg.

For data set [2], the system named is rigidity provoked by reserpine. The data set can be described thus: Antagonism with respect to reserpinic rigidity. The data set is classed as in vivo. Also noted: key to Antagonism to reserpinic rigidity for a determined dose in mg/kg: ++: It was expressed by an increasing number of + signs for a given dose expressed in mg/kg. Particulars: rat; for Antagonism to reserpinic rigidity for a determined dose in mg/kg: reserpine 10 mg/kg i.v., E.M.G. As to the method: The antagonism of the compounds with respect to reserpinic rigidity [Jurna I: Arch. Pharmak. Exp. Path. Vol. 260 (1968), p. 80-88] was studied on the rat. The tests consisted of recording, by means of electrodes placed on the muscles of the anterior cavity of one of the rear paws of the animal, the electromyogram (E.M.G.) provoked by a dorsiflection of the instep. A dose of 10 mg/kg of reserpine was administered intraveneously, then, one half hour later when the hypertonicity of the muscle was maximal, the product to be studied was administered in the same way at a dose of 10 mg/kg or of 20 mg/kg.
The electromyographic responses obtained before and after treatment, were compared in intensity and in time. The inhibition observed on the electromyogram expressed the antagonism exercised by the product with respect to the rigidity provoked by reserpine. It was expressed by an increasing number of + signs for a given dose expressed in mg/kg.

The next data set relates to dog. As to the kind of experiment: Anorexigenic activity in the dog. The format is in vivo. Particulars: administered in the first ball, 7 hours. As to the method:
The anorexigenic activity was studied on the dog using the method of ADAMS et al [J. Pharm. Sci., Vol. 53 (1964), p. 1405]. On the day of the test of a substance presumed to be anorexigenic, the individual daily ration of the animals was broken down into substantially equal balls (10 to 20 g) which were offered to the dogs every 10 minutes for 7 hours. Normally, the animals regularly accept the successive balls offered to them. Refusal translates the anorexiant effectiveness of the compound studied which was administered in the first ball. The anorexigenic activity was expressed by an increasing number of + signs for a given dose expresses in mg/kg.

The next data set in a line: Acute toxicity. Particulars: mouse, in vivo, ip; mice, intraperitoneal, 48 hours after administration. As to the method: The LD50, the dose at which 50% of the mice died after the intraperitoneal administration of the products to mice was determined 48 hours after the administration.
Data set [3] deals with stereotypies provoked by dexamphetamine. The data set can be described thus: Potentiation of stereotypies provoked by dexamphetamine. Also on record: Potentiation of stereotypies provoked by dexamphetamine for a determined dose in mg/kg: key to the marks not given beside the values. Conditions: rats; for Potentiation of stereotypies provoked by dexamphetamine for a determined dose in mg/kg: dexamphetamine sulfate 3 mg/kg i.p. The data set is classed as in vivo. As to the method:
Each animal was placed individually in a grilled cage (29×25 ×17 cm) containing a few wood shavings. A does of 3 mg/kg of dexamphetamine sulfate was injected intraperitoneally one half hour after the intraperitoneal administration of the product studied. The behavior of the animals was noted every half hour for 5 hours with the rating recommended by […] et al [Brit. J. Pharmacol., Vol. 23 (1964), p. 330-350]. The animalis asleep (0), he is awake but immobile (1), he is turning in his cage (2), he is sniffing the lid (3), he is licking the sides (4), he is touching the shavings or the bars of the cage with his teeth (5), he is biting the chips or bars of the cage (6). The total of the scores per group at different periods after the administration of the product studied was determined and the potentiation of the stereotypies evaluated at the height of the effect is expressed by an increasing number of + signs for a given dose.

Where a name gives a salt, the structure may show the parent alone.

As a reminder, the LD50 is the dose at which mortality reaches 50%. In the case of `Cl.FC(F)(F)c1cccc(C2CCCNC2)c1` (stereo not drawn) [Example 1, 3-(m-trifluoromethylphenyl)-piperidine hydrochloride], the “Antagonism of catalepsy provoked by prochloropemazine for a determined dose in mg/kg” value (from here on “Antagonism of catalepsy provoked”) in data set [1] (20 mg/kg i.p.) is “++”. The “antagonism toward the cataleptigenic activity of prochlorpemazine” value in data set [1] is reported as “substantial antagonism”. For the same compound, the anorexigenic activity entry in the data set on mice and in the data set with dog (20 mg/kg) was “+” in each case. Also, the “Antagonism to reserpinic rigidity for a determined dose in mg/kg” value (“Antagonism to reserpinic rigidity … in mg/kg” for short) in data set [2] (20 mg/kg i.v.) is listed as “++”. In addition, the LD50 at 48 h in “Acute toxicity” is ~150 mg/kg.

On to `CC(C)N1CCCC(c2cccc(C(F)(F)F)c2)C1.Cl` (stereo not drawn) [Example 4, N-isopropyl-3-(m-trifluoromethylphenyl)-piperidine hydrochloride], for which, in data set [3] (0.2 mg/kg i.p.), the “Potentiation of stereotypies provoked by dexamphetamine for a determined dose in mg/kg” value (“Potentiation of stereotypies provoked … in mg/kg” for short) was “+++”. For the same compound, in data set [3] (in words, i.p.), the “activity of potentiation of stereotypies provoked by dexamphetamine” value was “very high activity”. In addition, the “Antagonism of catalepsy provoked” value in data set [1] (50 mg/kg i.p.) was “+++”. Also, the “antagonism toward the cataleptigenic activity of prochlorpemazine” value in data set [1] is recorded as “substantial antagonism”. In addition, the anorexigenic activity result in the data set with mice and in the data set with dog (25 mg/kg) was “+” throughout. Also, in data set [2] (10 mg/kg i.v.), the “Antagonism to reserpinic rigidity … in mg/kg” value was “++”. Further, the “Antagonism to reserpinic rigidity” value in data set [2] (in words, i.v.) is “very high activity”. The LD50 at 48 h in “Acute toxicity” is ~100 mg/kg.

As to `FC(F)(F)c1cccc(C2CCCN(Cc3ccccc3)C2)c1` (stereo not drawn) [Example 6, N-benzyl-3-(m-trifluoromethylphenyl)-piperidine hydrochloride], the “Potentiation of stereotypies provoked … in mg/kg” value in data set [3] (20 mg/kg i.p.) is “++”. For the same compound, the LD50 at 48 h in “Acute toxicity” was ~150 mg/kg.

`CN1CCCC(c2cccc(C(F)(F)F)c2)C1.Cl` (stereo not drawn) [Example 3, N-methyl-3-(m-trifluoromethylphenyl)-piperidine hydrochloride]: in data set [3] (2 mg/kg i.p.), the “Potentiation of stereotypies provoked … in mg/kg” value was “++”. Also, the “Antagonism of catalepsy provoked” value in data set [1] (20 mg/kg i.p.) is “+”. For the same compound, the “Antagonism to reserpinic rigidity … in mg/kg” value in data set [2] (20 mg/kg i.v.) is on record as “++”. In addition, the LD50 at 48 h in “Acute toxicity” was ~100 mg/kg.

The values are drawn from US4259337A, “Method for using m-trifluoromethylphenyl-piperidines” (Roussel Uclaf, priority 1976, dated 1981).
